For this assay, the target named is Tyrosine-protein kinase BTK (Homo sapiens, UniProt Q06187). Put plainly: Enzyme Assay: The following describes a microfluidic, off-chip mobility shift kinase assay used to measure inherent potency of compounds against BTK enzyme. Compounds described by embodiments of the present invention were assayed using this protocol and the data from the same is recorded in Table 2 within the column labeled: Time Dependent BTK Enzyme Assay IC50. […] Stopped reactions were monitored at −2 PSI, −3000 V/−700 V in a LabChip 3000 plate reader from Caliper Life Sciences, a PerkinElmer Company (Hopkinton, Mass.), and the activity was measured by off-chip mobility shift assay measuring the charge/mass difference between substrate and product resulting from peptide phosphorylation. IC50 and efficacy were determined by plotting log [Inhibitor] vs. % Activity in GeneData Screener (Basel, Switzerland). Compounds described by embodiments of the present invention were assayed using this protocol and the data from the same is recorded in Table 2 within the column labeled: Time Dependent […] BTK Enzyme Assay IC50.

Broadly, the IC50 is the concentration that gives 50% inhibition.

Structures are written as SMILES.

Sequence of Tyrosine-protein kinase BTK (Q06187 whole entry): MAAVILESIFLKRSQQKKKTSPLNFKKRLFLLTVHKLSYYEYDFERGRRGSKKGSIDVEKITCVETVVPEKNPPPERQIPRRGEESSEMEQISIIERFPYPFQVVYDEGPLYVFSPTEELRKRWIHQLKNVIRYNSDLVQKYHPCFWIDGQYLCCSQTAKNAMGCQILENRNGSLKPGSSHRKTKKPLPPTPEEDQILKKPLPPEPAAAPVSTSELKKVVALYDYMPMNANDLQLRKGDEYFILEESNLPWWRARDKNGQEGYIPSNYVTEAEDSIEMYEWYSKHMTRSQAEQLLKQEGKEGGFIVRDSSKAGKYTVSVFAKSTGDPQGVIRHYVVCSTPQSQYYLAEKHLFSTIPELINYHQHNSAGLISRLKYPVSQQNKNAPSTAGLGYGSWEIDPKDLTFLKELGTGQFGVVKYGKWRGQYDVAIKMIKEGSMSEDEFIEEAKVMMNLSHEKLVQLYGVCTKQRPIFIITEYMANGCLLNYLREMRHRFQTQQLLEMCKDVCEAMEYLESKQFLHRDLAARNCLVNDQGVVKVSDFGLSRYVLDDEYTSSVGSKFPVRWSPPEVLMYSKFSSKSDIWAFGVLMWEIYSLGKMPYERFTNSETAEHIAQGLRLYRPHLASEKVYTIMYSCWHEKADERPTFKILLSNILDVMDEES

Regarding `C=CC(=O)N1CC2(CC(Nc3ncnc(N)c3-c3cnn(Cc4ccncc4)c3)C2)C1`, the 50% inhibitory concentration (IC50) is more than 1000 nM.
Consider `C=CC(=O)Nc1cccc(Oc2ncnc(N)c2-c2ccc(Oc3ccccc3)cc2)c1F`, for which the 50% inhibitory concentration (IC50) is less than 100 nM.
Then `CCC(=O)Nc1cccc(Oc2ccnc(C(N)=O)c2-c2ccc(Oc3ccccc3)cc2)c1`, with more than 1000 nM; and `CCC(=O)Nc1cccc(Oc2ccncc2-c2ccc(Oc3ccccc3)cc2)c1`, with more than 1000 nM.
The result for `Nc1ncnc(NC2CC3(C2)CN(S(=O)(=O)CCCl)C3)c1-c1ccc(Oc2ccccc2)cc1` reads less than 100 nM; that for `C=CC(=O)Nc1cccc(Oc2ncnc(N)c2-c2cnn(Cc3cccc(S(C)(=O)=O)c3)c2)c1`, less than 1000 nM.
The result for `N#CC1(C(=O)Nc2cccc(-c3c(N)ncnc3Oc3ccc(Oc4ccccc4)cc3)c2)CC1` reads more than 1000 nM; that for `C=CC(=O)Nc1cncc(Oc2ncnc(N)c2-c2ccc(Oc3ccc(C#N)cc3)cc2)c1`, less than 1000 nM.

The record behind these values is ChEMBL document CHEMBL5725790, “Compositions and methods for the production of pyrimidine and pyridine compounds with BTK inhibitory activity” (2017).
